According to patent publication US8987195B2 (priority 2012, dated 2015):

Target: HCV NS3/4A protease genotype 1b (Hepatitis C virus genotype 1b, UniProt P26663)
Assay: HCV NS3/4A protease time-resolved fluorescence (TRF) assay, Ki against genotype 1b
Format: biochemical
Experimental: Measuring NS3/4A Inhibitory Activity (Ki) Against Genotype 1b, Against A156T Mutants and Against Genotype 3a
One assay for measuring inhibitory activity is HCV NS3 protease time-resolved fluorescence (TRF) assay as described below and in Mao et al., Anal. Biochem. 373:1-8, 2008 and International Patent Application Publication WO 2006/102087. A NS3 protease assay can be performed, for example, in a final volume of 20 μl assay buffer containing 50 mM HEPES, pH 7.5, 150 mM NaCl, 15% glycerol, 0.15% TRITON X-100, 10 mM DTT, and 0.1% PEG 8000. NS3 and NS4A protease is pre-incubated with various concentrations of inhibitors in DMSO for 30 min. The reaction is initiated by adding the TRF peptide substrate (final concentration 25 nM). NS3 mediated hydrolysis of the substrate was run for 2.5 hours at room temperature. Product fluorescence is detected using A Pherastar Plus plate reader (BMG) or Envision (Perkin Elmer Life and Analytical Sciences with excitation at 340 nm and emission at 615 nm using the appropriate delay time optimized for the europium fluorescence probe. Testing concentrations of different enzyme forms are selected to result in a signal to background ratio (S/B) of 10-30. IC50 values are derived using a standard four-parameter fit to the data. Ki values are derived from IC50 values using the following formula, IC50=Ki(1+[S]/KM), Eqn (1), where [S] is the concentration of substrate peptide in the reaction and KM is the Michaelis constant. See P. Gallinari et al., 38 BIOCHEM. 5620-32 (1999); P. Gallinari et al., 72 J. VIROL. 6758-69 (1998); M. Taliani et al., 240 ANAL. BIOCHEM. 60-67 (1996); Mao et al., Analytical Biochemistry 373: 1-8, 2008.
The assay described above was run against genotype 1b at a concentration of 0.2 nM, against A156T mutant strains at a concentration of 0.4 nM, and against genotype 3a at a concentration of 0.025 nM.

[1] = IC50 [gt-1b], NS3/4A protease TRF assay, genotype 1b enzyme 0.2 nM, K+ salt
[2] = IC50 [gt-1b] (nM), NS3/4A genotype 1b, enzyme 0.2 nM, K+ salt

In the case of COc1ccc2nc(C(F)F)c3c(c2c1)CC[C@]1(C[C@H]2C(=O)N[C@]4(C(=O)NS(=O)(=O)C5(C)CC5)C[C@H]4/C=C\CCCCC[C@H](NC(=O)OCC4CCC4)C(=O)N2C1)O3 [Example 504, cyclobutylmethyl [(2R,6S,12Z,13aS,14aR,16aS)-5′-(difluoromethyl)-9′-methoxy-14a-{[(1-methylcyclopropyl)sulfonyl]carbamoyl}-5,16-dioxo-1,1′,2′,5,6,7,8,9,10,11,13a,14,14a,15,16,16a-hexadecahydrospiro[cyclopropa[e]pyrrolo[1,2-a][1,4]diazacyclopentadecine-2,3′-pyrano[2,3-c]quinolin]-6-yl]carbamate], the IC50 [1] is reported as 0.01 nM.

For Cc1nc2cc(F)c(F)cc2c2c1O[C@]1(CC2)C[C@H]2C(=O)N[C@]3(C(=O)NS(=O)(=O)C4(C)CC4)C[C@H]3/C=C\CCCCC[C@H](NC(=O)OC3CCC3)C(=O)N2C1 [Example 204, cyclobutyl [(2R,6S,12Z,13aS,14aR,16aS)-8′,9′-difluoro-5′-methyl-14a-{[(1-methylcyclopropyl)sulfonyl]carbamoyl}-5,16-dioxo-1,1′,2′,5,6,7,8,9,10,11,13a,14,14a,15,16,16a-hexadecahydrospiro[cyclopropa[e]pyrrolo[1,2-a][1,4]diazacyclopentadecine-2,3′-pyrano[2,3-c]quinolin]-6-yl]carbamate], the IC50 [2] was 0.015 nM.

With Cc1ccc2nc(C(F)(F)F)c3c(c2c1)CC[C@]1(C[C@H]2C(=O)N[C@]4(C(=O)NS(=O)(=O)C5(C)CC5)C[C@H]4/C=C\CCCCC[C@H](NC(=O)O[C@@H](C)C(C)C)C(=O)N2C1)O3 [Example 396, (2S)-3-methylbutan-2-yl [(2R,6S,12Z,13aS,14aR,16aS)-9′-methyl-14a-{[(1-methylcyclopropyl)sulfonyl]carbamoyl}-5,16-dioxo-5′-(trifluoromethyl)-1,1′,2′,5,6,7,8,9,10,11,13a,14,14a,15,16,16a-hexadecahydrospiro[cyclopropa[e]pyrrolo[1,2-a][1,4]diazacyclopentadecine-2,3′-pyrano[2,3-c]quinolin]-6-yl]carbamate] the IC50 (IC50 [gt-1b], NS3/4A protease TRF assay, genotype 1b enzyme 0.2 nM) was 0.009 nM.

For Cc1nc2ccc(C(F)(F)F)cc2c2c1O[C@]1(CC2)C[C@H]2C(=O)N[C@]3(C(=O)NS(=O)(=O)C4(C)CC4)C[C@H]3/C=C\CCCCC[C@H](NC(=O)OCC(C)C)C(=O)N2C1 [Example 253, 2-methylpropyl [(2R,6S,12Z,13aS,14aR,16aS)-5′-methyl-14a-{[(1-methylcyclopropyl)sulfonyl]carbamoyl}-5,16-dioxo-9′-(trifluoromethyl)-1,1′,2′,5,6,7,8,9,10,11,13a,14,14a,15,16,16a-hexadecahydrospiro[cyclopropa[e]pyrrolo[1,2-a][1,4]diazacyclopentadecine-2,3′-pyrano[2,3-c]quinolin]-6-yl]carbamate], the IC50 (IC50 [gt-1b] (nM), NS3/4A genotype 1b, enzyme 0.2 nM) was 0.014 nM.

COc1ccc2nc(C(F)F)c3c(c2c1)CC[C@]1(C[C@H]2C(=O)NC4(C(=O)NS(=O)(=O)C5(C)CC5)C[C@H]4/C=C\CCCCC[C@H](NC(=O)O[C@@H]4C[C@@H]5C[C@@H]5C4)C(=O)N2C1)O3 (stereo partly drawn) [Example 503, (1R,3r,5S)-bicyclo[3.1.0]hex-3-yl [(2R,6S,12Z,13aS,14aR,16aS)-5′-(difluoromethyl)-9′-methoxy-14a-{[(1-methylcyclopropyl)sulfonyl]carbamoyl}-5,16-dioxo-1,1′,2′,5,6,7,8,9,10,11,13a,14,14a,15,16,16a-hexadecahydrospiro[cyclopropa[e]pyrrolo[1,2-a][1,4]diazacyclopentadecine-2,3′-pyrano[2,3-c]quinolin]-6-yl]carbamate] gave an IC50 [1] of 0.007 nM.

For COc1ccc2nc(C)c3c(c2c1)CC[C@]1(C[C@H]2C(=O)N[C@]4(C(=O)NS(=O)(=O)C5(C)CC5)C[C@H]4/C=C\CCCCC[C@H](NC(=O)OC4(C)CCC4)C(=O)N2C1)O3 [Example 186, 1-methylcyclobutyl [(2R,6S,12Z,13aS,14aR,16aS)-9′-methoxy-5′-methyl-14a-{[(1-methylcyclopropyl)sulfonyl]carbamoyl}-5,16-dioxo-1,1′,2′,5,6,7,8,9,10,11,13a,14,14a,15,16,16a-hexadecahydrospiro[cyclopropa[e]pyrrolo[1,2-a][1,4]diazacyclopentadecine-2,3′-pyrano[2,3-c]quinolin]-6-yl]carbamate], the IC50 [2] was 0.009 nM.
